Results published in ChEMBL document CHEMBL4229345, “Inhibition of trypanosome alternative oxidase without its N-terminal mitochondrial targeting signal (ΔMTS-TAO) by cationic and non-cationic 4-hydroxybenzoate and 4-alkoxybenzaldehyde derivatives active against T. brucei and T. congolense” (Eur J Med Chem, 2018).

How the values were obtained:
[1] = Inhibition of recombinant N-terminal His6 tagged SUMO-fused Trypanosoma brucei brucei TC221 TAO MTS deletion mutant expressed in Escherichia coli FN102 preincubated for 2 mins followed by ubiquinol-1 addition measured over 2 mins by double beam-dual wavelength UV-spectrophotometry
[2] = Competitive inhibition of recombinant N-terminal His6 tagged SUMO-fused Trypanosoma brucei brucei TC221 TAO MTS deletion mutant expressed in Escherichia coli FN102 preincubated for 2 mins followed by ubiquinol-1 addition measured over 2 mins by Lineweaver-Burk plot analysis
[3] = system: Trypanosoma brucei brucei; test: Anti-parasitic activity against bloodstream trypomastigote stage of wild-type Trypanosoma brucei brucei Lister 427 after 48 hrs by resazurin-based assay; assay type: functional, organism-based; conditions: Lister 427, 48 h
[4] = system: Trypanosoma brucei brucei; test: Anti-parasitic activity against bloodstream trypomastigote stage of wild-type Trypanosoma brucei brucei Lister 427 after 48 hrs in presence of 5 mM glycerol by resazurin-based assay; assay type: functional, organism-based; conditions: Lister 427, 48 h
[5] = system: Trypanosoma congolense; test: Anti-parasitic activity against bloodstream form of Trypanosoma congolense IL3000 after 48 hrs by resazurin-based assay; assay type: functional, organism-based; conditions: IL3000, 48 h
[6] = system: Trypanosoma brucei brucei; test: Resistance factor, ratio of EC50 for bloodstream trypomastigote stage of wild-type Trypanosoma brucei brucei Lister 427 in presence of 5 mM glycerol to EC50 for bloodstream trypomastigote stage of wild-type Trypanosoma brucei brucei Lister 427; assay type: functional
[7] = Cytotoxicity against HFF cells assessed as reduction in cell viability after 30 hrs by resazurin-based assay; conditions: human
[8] = system: Trypanosoma brucei brucei; test: Anti-parasitic activity against bloodstream trypomastigote stage of Trypanosoma brucei brucei with AQP2/3-dd knock out after 48 hrs by resazurin-based assay; assay type: functional, organism-based
[9] = system: Trypanosoma brucei brucei; test: Anti-parasitic activity against bloodstream trypomastigote stage of Trypanosoma brucei brucei with AQP triple knock out after 48 hrs by resazurin-based assay; assay type: functional, organism-based
[10] = system: Trypanosoma brucei; test: Anti-parasitic activity against bloodstream trypomastigote stage of pentamidine/diminazene/melaminophenyl arsenical resistant Trypanosoma brucei B48 after 48 hrs by resazurin-based assay; assay type: functional, organism-based; conditions: B48, 48 h
[11] = system: Trypanosoma brucei brucei; test: Resistance factor, ratio of EC50 for bloodstream trypomastigote stage of Trypanosoma brucei brucei with AQP2/3-dd knock out to EC50 for bloodstream trypomastigote stage of wild-type Trypanosoma brucei brucei Lister 427; assay type: functional
[12] = system: Trypanosoma brucei brucei; test: Resistance factor, ratio of EC50 for bloodstream trypomastigote stage of Trypanosoma brucei brucei AQP triple knock out to EC50 for bloodstream trypomastigote stage of wild-type Trypanosoma brucei brucei Lister 427; assay type: functional
[13] = Resistance factor, ratio of EC50 for bloodstream trypomastigote stage of pentamidine/diminazene/melaminophenyl arsenical resistant Trypanosoma brucei B48 to EC50 for bloodstream trypomastigote stage of wild-type Trypanosoma brucei brucei Lister 427; assay type: functional
[14] = Selectivity index, ratio of CC50 for HFF cells to EC50 for bloodstream trypomastigote stage of wild-type Trypanosoma brucei brucei Lister 427; assay type: toxicity; conditions: human, read-out: Ratio CC50/EC50
[15] = Selectivity index, ratio of CC50 for HFF cells to EC50 for bloodstream form of Trypanosoma congolense IL3000; assay type: toxicity; conditions: human, read-out: Ratio CC50/EC50
[16] = Stability in mouse serum assessed as compound hydrolysis after 24 hrs by LC/MS analysis; assay type: ADME, cell-free; conditions: read-out: Drug degradation
[17] = Half life in mouse serum by LC/MS analysis; assay type: ADME, cell-free
[18] = Stability in mouse serum assessed as compound hydrolysis after 1 hr by LC/MS analysis; assay type: ADME, cell-free; conditions: read-out: Drug degradation
[19] = Stability in mouse serum assessed as parent compound remaining after 0.25 to 24 hrs by LC/MS analysis; assay type: ADME, cell-free
[20] = Protein binding in mouse serum up to 24 hrs by LC/MS analysis; assay type: ADME, cell-free; conditions: read-out: PB (converted)
[21] = Stability in mouse serum assessed as parent compound recovery after 15 mins by LC/MS analysis; assay type: ADME, cell-free; conditions: read-out: Drug recovery
[22] = system: Trypanosoma brucei brucei; test: Potency index, ratio of diminazene EC50 to test compound EC50 for anti-parasitic activity against bloodstream trypomastigote stage of wild-type Trypanosoma brucei brucei Lister 427; assay type: functional
[23] = system: Trypanosoma congolense; test: Potency index, ratio of diminazene EC50 to test compound EC50 for anti-parasitic activity against bloodstream form of Trypanosoma congolense IL3000; assay type: functional
[24] = Stability in mouse serum assessed as compound hydrolysis after 2 hrs by LC/MS analysis; assay type: ADME, cell-free; conditions: read-out: Drug degradation
[25] = Stability in horse serum assessed as compound hydrolysis after 2 hrs by LC/MS analysis; assay type: ADME, cell-free, Equus caballus; conditions: read-out: Drug degradation
[26] = Noncompetitive inhibition of recombinant N-terminal His6 tagged SUMO-fused Trypanosoma brucei brucei TC221 TAO MTS deletion mutant expressed in Escherichia coli FN102 preincubated for 2 mins followed by ubiquinol-1 addition measured over 2 mins by Lineweaver-Burk plot analysis
[27] = Cytotoxicity against HEK cells assessed as reduction in cell viability after 30 hrs by resazurin-based assay; conditions: human
[28] = Selectivity index, ratio of CC50 for HEK cells to EC50 for bloodstream trypomastigote stage of wild-type Trypanosoma brucei brucei Lister 427; assay type: toxicity; conditions: human, read-out: Ratio CC50/EC50

Compound | IC50 [1] [nM] | EC50 [3] [nM] | EC50 [4] [nM] | EC50 [5] [nM] | Ratio EC50 [6] | CC50 at 30 h [7] [nM] | EC50 [8] [nM] | EC50 [9] [nM] | EC50 [10] [nM] | Ratio EC50 [11] | Ratio EC50 [12] | Ratio EC50 [13] | selectivity ratio [14] | selectivity ratio [15] | metabolised at 24 h [16] [%] | half-life [17] [min] | also measured
Cc1cc(O)ccc1C(=O)OCCCCCCCCCCCCCC[n+]1cccc2ccccc21.[Br-] | 30 | 210 | 145 | 1820 | 0.69 | > 200000 | 100 | 86 | 300 | 0.47 | 0.41 | 1.4 | > 952 | > 110 | > 99 | 30 | Ki [2]: 52.9 nM
O=C(OCCCCCCCCCCCCCC[n+]1cccc2ccccc21)c1ccc(O)cc1O | 1360 |  |  |  |  |  |  |  |  |  |  |  |  |  |  |  | metabolised at 1 h [18]: 50%
O=Cc1ccc(OCCCCCCCCCCCCCC[P+](c2ccccc2)(c2ccccc2)c2ccccc2)cc1O.[Br-] | 220 | 133 | 67 | 270 | 0.51 | > 200000 | 42 | 53 | 110 | 0.32 | 0.4 | 0.8 | > 1500 | > 740 |  |  | Stability [19]: Stable; fraction unbound at 24 h [20]: 0.1; remaining at 0.25 h [21]: 12%
Cc1cc(O)ccc1C(=O)OCCCCCCCCCCCCCC[P+](c1ccccc1)(c1ccccc1)c1ccccc1.[Br-] | 81 | 2.4 | 3.2 | 39 | 1.32 | > 200000 | 2.2 | 5 | 2.2 | 0.92 | 2 | 0.9 | > 83000 | > 5130 | > 99 | 60 | Ratio EC50 [22]: 5 - 40; Ratio EC50 [23]: 5 - 40; metabolised at 2 h [24]: 70%; metabolised at 2 h [25]: < 20%
O=C(OCCCCCCCCCCOC(=O)c1ccc(O)cc1O)c1ccc(O)cc1O | 6.9 | 49000 | 12200 | > 100000 | 0.25 |  | 24600 | 7100 | 41600 | 0.5 | 0.14 | 0.85 |  |  |  |  | Ki [26]: 34.1 nM; CC50 at 30 h [27]: > 400000 nM; selectivity ratio [28]: > 8
